Data set [1] has as its system COLO205 xenograft tumors. The data set is described as follows: Tumor growth inhibition in COLO205 xenograft tumors. The note with it: for TGI %: TGI = (1−T/C)×100%. In kind it is in vivo, mice. Here is the method: COLO205 cells were cultured with RPMI-1640 medium containing 10% fetal bovine serum (FBS) at 37° C. in 5% CO^2 incubator. Logarithmic growth phase cells were collected. COLO205 cells (5×10^6 in 200 μL PBS) were implanted subcutaneously into the left flank region, and tumor growth was monitored. Tumor volume (V) was estimated from the length (l) and width (w) of the tumor using the following formula: V=1/2×l×w^2. Treatment started when average tumor size was 100-200 mm^3.
The dosage and dosage regimen were as shown table 2. Tumor volumes and mice weight were measured 2 to 3 times every week.
Drug efficacy was assessed as Tumor Growth Inhibition (TGI) and T/C ratio. TGI was defined as (1−T/C)×100%, wherein T/C (%) presented the ratio of the change in mean tumor volume of the treated group and of the control group.

Data set [2] has as its system BE2C cells. Put plainly: Cell proliferation assay (MTS) in BE2C cells. In kind it is cell-based. To be noted: Homo sapiens, BE(2)-C, 48 h. An excerpt: (§1) MTS testing kit was purchased from Promega. The DMEM, Fetal bovine serum and Penicillin-Streptomycin were purchased from Gibco. Dimethyl sulfoxide (DMSO) was purchased from Sigma.
(§2) To investigate whether a compound is able to inhibit the activity of CDK4/6 in cells, mechanism-based assays using BE2C (ATCC® number: CRL-2268) or JEKO-1 (ATCC® number: CRL-3006) cell were developed. In the assay, inhibition of CDK4/6 was detected by the inhibition of BE2C or JEKO-1 cell cells proliferation. BE2C or JEKO-1 cell cells were cultured in culture flasks to 40-80% confluence in DMEM plus 10% fetal bovine serum. Cells were collected and plated onto 96-well plates at desired cell density (BE2C: 3000 cells/well; JEKO-1: 30000 cells/well). Plates were incubated overnight at 37° C., with 5% CO2 to adhere. Compounds were added to the plates, the final compound concentrations were 10000, 3333, 1111, […], 123.5, 41.2, 13.7, 4.6 and 1.5 nM. Place plates at 37° C., with 5% CO2 for 48 h. After removing the medium, 20 μl MTS/100 μl medium mixture solution were added to each well and incubate the plates for exactly 2 hours. Stop the reaction by adding 25 μl 10% SDS per well. Measure absorbance at 490 nm and 650 nm (reference wavelength). IC50 was calculated using GraphPad Prism 5.0.
(§3) Select compounds prepared as described above were assayed according to the biological procedures described herein. “+++” stands for IC50 value between greater than about 10 nM to about 100 nM. “++” stands for IC50 value between greater than about 100 nM to about 1 μM. “+” stands for IC50 value greater than 1 μM.

Data set [3] relates to JEKO-1 cells. Put plainly: Cell proliferation assay (MTS) in JEKO-1 cells. In kind it is cell-based. The note with it: Homo sapiens, 48 h.
Description: as §1, §2, §3

Data set [4] is described as follows: Pharmacokinetic properties in dogs. In kind it is in vivo. To be noted: dog, po; male Beagle dogs, 3 mg/kg p.o., plasma. As for the experimental part: Each test compounds was suspended in 0.5% methylcellulose (400 cP, w/v) in water.
Grouping male Beagle dogs was administered with test compound at a dose of 3 mg/kg by oral. After administering, blood samples were collected at time points of 0.25, 0.50, 1.0, 2.0, 4.0, 8.0 and 24.0 h. Standard curve was plotted based on concentrations of the samples in a suitable range, and the concentration of test compounds in plasma samples were determined by using LC-MS/MS. Pharmacokinetic parameters were calculated according to drug concentration-time curve using a non-compartmental method by Phoenix WinNonLin 6.3 software.

With `CN(C)C(=O)c1cc2cnc(Nc3ccc(N4CCNCC4)cn3)nc2n1C1CCCC1` [Ribociclib, reference compound], in data set [1] (60 mg/kg PO QD × 14 days), the T/C % is reported as 25.6% and the TGI % stood at 74.40%.

As for `CCN1CCN(C2CCN(c3ccc(Nc4ncc5sc(C(=O)N(C)C)c(C6CCCC6)c5n4)nc3)CC2)CC1` [Example 6, 7-cyclopentyl-2-((5-(4-(4-ethylpiperazin-1-yl)piperidin-1-yl)pyridin-2-yl)amino)-N,N-dimethylthieno[3,2-d]pyrimidine-6-carboxamide], the IC50 in data set [2] lay in the range of 0.01 to 0.1 µM. This compound also returned an IC50 in data set [3] of 0.01 to 0.1 µM. In data set [1] (60 mg/kg PO QD × 14 days), the T/C % is listed as −2.97% and the TGI % is recorded as 102.97%. In data set [4], this compound had an AUC(0-inf) of 7.34 µg·h/mL, an AUC(0-t) of 5.03 µg·h/mL, a Cmax of 0.404 µg/mL and a half-life of 13.2 h.

Regarding `CN1CCN(c2ccc(Nc3ncc4sc(C(=O)N(C)C)c(C5CCCC5)c4n3)nc2)CC1` [Reference Compound 1, 7-cyclopentyl-N,N-dimethyl-2-(5-(4-methylpiperazin-1-yl)pyridin-2-ylamino)thieno[3,2-d]pyrimidine-6-carboxamide, reference compound], in data set [4], the total exposure AUC(0-inf) was determined as 0.103 µg·h/mL, the exposure AUC(0-t) came to 0.083 µg·h/mL, the highest concentration (Cmax) was determined as 0.036 µg/mL and the half-life was 5.36 h.

Consider `CCN1CCC(N2CCN(c3ccc(Nc4ncc5sc(C(=O)N(C)C)c(C6CCCC6)c5n4)nc3)CC2)CC1` [Example 2, 7-cyclopentyl-2-((5-(4-(1-ethylpiperidin-4-yl)piperazin-1-yl)pyridin-2-yl)amino)-N,N-dimethylthieno[3,2-d]pyrimidine-6-carboxamide], for which, in data set [2], the IC50 is 0.01 to 0.1 µM. Further, in data set [3], the IC50 was in the range of 0.1 to 1 µM. Further, in data set [1] (30 mg/kg PO QD × 14 days), the T/C % was 0.88% and the TGI % was 99.12%. In data set [4], the AUC(0-inf) was 7.01 µg·h/mL, the exposure AUC(0-t) worked out at 2.5 µg·h/mL, the Cmax is 0.127 µg/mL and the half-life was 26 h.

For `CN1CCN(C2CCN(c3ccc(Nc4ncc5sc(C(=O)N(C)C)c(C6CCCC6)c5n4)nc3)CC2)CC1` [Example 5, 7-cyclopentyl-N,N-dimethyl-2-((5-(4-(4-methylpiperazin-1-yl)piperidin-1-yl)pyridin-2-yl)amino)thieno[3,2-d]pyrimidine-6-carboxamide], in data set [2], the IC50 was 0.01 to 0.1 µM. Also, the IC50 in data set [3] fell in the range of 0.01 to 0.1 µM. In data set [1] (60 mg/kg PO QD × 14 days), the T/C % is recorded as −2.31% and the TGI % is on record as 102.31%. In data set [4], this compound gave an AUC(0-inf) of 7.52 µg·h/mL, an area under the curve AUC(0-t) of 4.66 µg·h/mL, a peak concentration (Cmax) of 0.312 µg/mL and a half-life of 16.1 h.

For the compound `CN(C)C(=O)c1sc2cnc(Nc3ccc(N4CCC(N5CCOCC5)CC4)cn3)nc2c1C1CCCC1` [Example 7, 7-cyclopentyl-N,N-dimethyl-2-((5-(4-morpholinopiperidin-1-yl)pyridin-2-yl)amino)thieno[3,2-d]pyrimidine-6-carboxamide], the IC50 in data set [2] was 0.01 to 0.1 µM.

In the case of `CN1CCC(N2CCN(c3ccc(Nc4ncc5sc(C(=O)N(C)C)c(C6CCCC6)c5n4)nc3)CC2)CC1` [Example 3, 7-cyclopentyl-N,N-dimethyl-2-((5-(4-(1-methylpiperidin-4-yl)piperazin-1-yl)pyridin-2-yl)amino)thieno[3,2-d]pyrimidine-6-carboxamide], the IC50 in data set [2] fell in the range of 0.01 to 0.1 µM; in data set [3], 0.1 to 1 µM.

In turn, `CN(C)C(=O)c1sc2cnc(Nc3ccc(N4CCC(N5CCNCC5)CC4)cn3)nc2c1C1CCCC1` [Example 4, 7-cyclopentyl-N,N-dimethyl-2-((5-(4-(piperazin-1-yl)piperidin-1-yl)pyridin-2-yl)amino)thieno[3,2-d]pyrimidine-6-carboxamide] yielded a concentration for half-maximal inhibition (IC50) in data set [2] of 0.1 to 1 µM.

With `CN(C)C(=O)c1sc2cnc(Nc3ccc(N4CCN(C5CCNCC5)CC4)cn3)nc2c1C1CCCC1` [Example 1, 7-cyclopentyl-N,N-dimethyl-2-((5-(4-(piperidin-4-yl)piperazin-1-yl)pyridin-2-yl)amino)thieno[3,2-d]pyrimidine-6-carboxamide], in data set [3], the concentration for half-maximal inhibition (IC50) was in the range of 0.1 to 1 µM.

(Values after patent publication US10835535B2, “Certain protein kinase inhibitors” (Shanghai Fochon Pharmaceutical Co., Ltd., priority 2016, dated 2020).)
